Where two headings read alike, the source gives them in different places.
How the values were obtained:
[1] = cited from earlier work
hMATE2K = biological target: T1, hMATE2K (Homo sapiens, UniProt Q86VL8); experiment: Inhibition of hMATE2K-mediated MPP+ uptake, stably transfected 293 cells; format: cell-based; details: substrate 3 µM MPP+, median (95% CI)
T1 construct: expressed in transfected cells; host or cells: HEK-293 (293) cells, pEBTetD plasmid, doxycycline-induced
Description: (§1) We characterized the inhibitory potential of iohexol on major drug transporters recommended by regulatory agencies, which were previously assessed in a clinical transporter phenotyping cocktail study. These transporters include hOAT1, hOAT3, hOCT1, hOCT2, hMATE1, hMATE2K, human organic anion transporter polypeptides (hOATP)1B1, hOATP1B3, and human multidrug resistance protein (hMDR)1. Additionally, we investigated whether iohexol is a substrate for any of the renal transporters among these, including hOAT1/3, hOCT1/2, and hMATE1/2K. Cell‐based uptake assays were used to assess the activities of hOAT1/3, hOCT1/2, hMATE1/2K, and hOATP1B1/1B3. Inside‐out membrane vesicle uptake assays were used to evaluate the activity of hMDR1.
(§2) To determine the maximal inhibitory potential of iohexol, intracellular accumulation of a standard substrate was measured with and without the clinically relevant highest concentrations of iohexol. Control inhibitors were tested in each experiment.
(§3) In all subsequent in vitro studies, control experiments were conducted to validate the results. These included positive controls for substrates and inhibitors, as well as cells either without transporter expression or transfected with an empty vector, and control vesicles. Each condition, including cells or vesicles with the transporter and their respective controls, was analyzed in at least three replicates. For detailed information on materials, methods, and data analysis techniques used, refer to the Supporting Information. […]
(§4) R version 4.2.1 (R Foundation for Statistical Computing, Vienna, Austria) was used for statistical evaluations and data visualization. The data analysis approach for the in vitro study was detailed by Hsin CH et al..^1 In brief, for transport assays, the initial uptake rate was calculated by normalizing the substrate concentration to both the protein concentration and the incubation time for each dish or well. The transporter-mediated uptake rate (net uptake) was determined by performing an element-wise subtraction of uptake rates from different conditions. […]

hOAT1 [2] = biological target: T2, hOAT1 (Homo sapiens, UniProt Q4U2R8); experiment: Inhibition of hOAT1-mediated PAH uptake, stably transfected 293 cells; format: cell-based; details: substrate 10 µM PAH, median (95% CI)
T2 construct: expressed in transfected cells; host or cells: HEK-293 (293) cells, pEBTetD plasmid, doxycycline-induced
T2 sequence (Q4U2R8 1-563): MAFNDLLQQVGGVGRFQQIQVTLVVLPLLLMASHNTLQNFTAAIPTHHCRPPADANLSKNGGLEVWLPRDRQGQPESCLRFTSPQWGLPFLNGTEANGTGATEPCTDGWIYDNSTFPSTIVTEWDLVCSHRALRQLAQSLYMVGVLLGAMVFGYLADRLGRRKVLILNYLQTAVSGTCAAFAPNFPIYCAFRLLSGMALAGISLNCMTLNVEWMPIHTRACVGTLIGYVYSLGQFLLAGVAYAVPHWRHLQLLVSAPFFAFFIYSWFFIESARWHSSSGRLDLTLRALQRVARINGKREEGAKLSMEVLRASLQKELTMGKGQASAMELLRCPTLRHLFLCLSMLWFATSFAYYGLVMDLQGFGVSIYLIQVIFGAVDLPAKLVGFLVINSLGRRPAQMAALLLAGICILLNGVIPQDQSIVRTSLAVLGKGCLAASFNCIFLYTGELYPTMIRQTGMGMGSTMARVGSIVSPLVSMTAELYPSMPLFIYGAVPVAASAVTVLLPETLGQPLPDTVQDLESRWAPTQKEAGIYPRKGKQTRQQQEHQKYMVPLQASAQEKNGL
Description: as §1, §2, §3, §4

[3] = system: rat‐isolated perfused kidney; set-up: method as in ref 14 Masereeuw et al.; details: mean ± standard deviation, ref 14 Masereeuw et al., cited from earlier work
hOAT1 [4] = biological target: T2, hOAT1; experiment: Substrate assessment: iohexol uptake in 293 cells expressing hOAT1 vs control; format: in vitro ADME; details: 10 μM iohexol, median (95% CI)
Description: as §1
For substrate assessments, iohexol was incubated with stably transfected HEK‐293 cells expressing one of the following transporters: hOAT1, hOAT3, hOCT1, hOCT2, hMATE1, or hMATE2K, as well as with control cells lacking transporter expression. Stably transfected cell lines containing pEBTetD plasmids with wild‐type human transporter cDNAs were generated as previously described. Transporter expression was induced by adding 1 μg/mL doxycycline to the growth medium for at least 20 h. Iohexol would be considered a substrate for these transporters if: (1) the ratio of iohexol uptake in cells expressing the transporter to that in control cells was ≥ 2, and (2) a known inhibitor of the transporter reduced iohexol uptake to ≤ 50% at concentrations ≥ 10 times its inhibition constant or half‐maximal inhibitory concentration.
Uptake assays were performed using stably transfected 293 cells, with or without the expression of one of the following transporters: hOAT1, hOAT3, hOCT1, hOCT2, hMATE1, or hMATE2K, as previously described.^1
For the substrate assessment, cells were incubated with 10 µM iohexol for 10 minutes and 30 minutes for each transporter. Inhibition assays were performed using specific standard substrates for each transporter: 10 µM para-aminohippuric acid (PAH) for hOAT1, 3 µM estrone-3-sulfate (E3S) for hOAT3, 50 µM metformin for hOCT1, 5 µM metformin for hOCT2, and 3 µM 1-methyl-4-phenylpyridinium (MPP+) for hMATE1 and hMATE2K. […]
as §4

[5] = HEK293, 1 mM iohexol, read-out: Inhibitory effect (% reduction of specific activity)
[6] = HEK293, 20 mM iohexol, read-out: Inhibitory effect (% reduction of specific activity)

T1 sequence (Q86VL8 1-566 isoform Q86VL8-3): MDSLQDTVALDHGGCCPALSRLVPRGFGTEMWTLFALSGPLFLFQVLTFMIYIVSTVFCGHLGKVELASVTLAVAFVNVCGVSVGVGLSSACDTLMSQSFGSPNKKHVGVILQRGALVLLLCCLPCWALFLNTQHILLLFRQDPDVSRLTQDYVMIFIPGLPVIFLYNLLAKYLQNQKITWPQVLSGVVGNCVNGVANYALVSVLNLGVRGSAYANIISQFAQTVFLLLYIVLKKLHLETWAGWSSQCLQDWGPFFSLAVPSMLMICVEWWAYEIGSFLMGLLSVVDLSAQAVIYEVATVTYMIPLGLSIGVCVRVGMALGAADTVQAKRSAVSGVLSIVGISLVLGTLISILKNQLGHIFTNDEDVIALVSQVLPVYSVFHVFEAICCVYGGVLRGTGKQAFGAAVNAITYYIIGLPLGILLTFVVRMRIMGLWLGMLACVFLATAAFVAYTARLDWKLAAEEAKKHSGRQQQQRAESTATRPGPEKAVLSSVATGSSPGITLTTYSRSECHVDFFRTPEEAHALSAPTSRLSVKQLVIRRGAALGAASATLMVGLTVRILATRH

Inhibitory effect (% reduction of specific activity) (hMATE2K; 20 mM iohexol): < 30%
inhibition at 1000 µM (hMATE2K; [5]): 14%
inhibition at 20000 µM (hMATE2K; [6]): 26%
Inhibitory effect (% reduction of specific activity) (hOAT1 [2]; 20 mM iohexol): no notable inhibitory effects
inhibition at 1000 µM (hOAT1 [2]; [5]): -0.45%
inhibition at 20000 µM (hOAT1 [2]; [6]): 3.1%
Differences in intracellular accumulation (expression on minus off) (hOAT1 [4]; 10 minutes): -0.39 (-3.4 to 1.1) pmol/mg protein
Uptake ratio (transporter-expressing vs non-expressing cells) (hOAT1 [4]; 10 minutes): 0.91 (0.75 to 1.2)
Differences in intracellular accumulation (expression on minus off) (hOAT1 [4]; 30 minutes): 0.98 (-0.62 to 2.1) pmol/mg protein
Uptake ratio (transporter-expressing vs non-expressing cells) (hOAT1 [4]; 30 minutes): 1.1 (0.95 to 1.3)
Structure (SMILES): CC(=O)N(CC(O)CO)c1c(I)c(C(=O)NCC(O)CO)c(I)c(C(=O)NCC(O)CO)c1I (centres unmarked) [iohexol]
Volume of distribution, previous three-compartment model estimate (median) [1]: 15.09 L
Cmax ([1]; following a 3235 mg iohexol injection, patients aged ≥ 70 years, median GFR 60.7 mL/min/1.73 m^2, read-out: Cmax (initial plasma concentration)): ~370 µM
Ratio of renal clearance to GFR ([3]; perfusate concentration 5 μg/mL): 0.63 ± 0.06
Ratio of renal clearance to GFR ([3]; perfusate concentration 20 μg/mL): 1.02 ± 0.06

Source: article PMC11788587, “Validating Low‐Dose Iohexol as a Marker for Glomerular Filtration Rate by In Vitro and In Vivo Studies” (Clinical and Translational Science, 2025)
